Source: EPA's ToxValDB 9.5 (doi:10.2903/j.efsa.2017.4718)

Tests used:
Sus scrofa = details: subchronic; duration: 3 months; oral; diet; Not specified; food consumption
Equus caballus = details: subchronic; duration: 40 days; no effects
Cyprinus carpio = details: subchronic; duration: 6 weeks; oral; feed; histopathology: nonneoplastic
Meleagris sp. = details: subchronic; duration: 12 weeks; oral; feed; M; no effects
Canidae = details: short-term; duration: 14 days; oral; diet; Dog Other; body weight
Ovis sp. = details: short-term; duration: 28 days; oral; diet; food consumption
Neovison vison = details: short-term; duration: 28 days; oral; diet; F; food consumption
Gallus gallus = details: subchronic; duration: 5 weeks; oral; diet; M; Chicken; no effects
Oryctolagus sp. = details: short-term; duration: 21 days; oral; diet; M; no effects
Felidae = details: short-term; duration: 14 days; oral; diet; Cat; body weight
Anatidae = details: not reported; oral; feed; no effects

CC1=C[C@H]2O[C@@H]3[C@H](O)C[C@](C)([C@@]2(CO)[C@H](O)C1=O)[C@@]31CO1 [Vomitoxin]
NOAEL (Sus scrofa): 0.7 mg/kg-day
NOAEL (Equus caballus): 36 mg/kg
NOAEL (Cyprinus carpio): 0.6 mg/kg
NOAEL (Meleagris sp.): 6.5 mg/kg
LEL (Mus musculus; chronic, duration: 2 years, immunology): ≥ 0.0016 mg/kg-day
NOAEL (Mus musculus; chronic, duration: 2 years, oral, diet, M/F, B6C3F1, food consumption): 0.1 mg/kg-day
NOAEL (Mus musculus; developmental, development): 0.5 mg/kg-day
NOAEL (Mus musculus; reproduction developmental, oral, diet, M/F, reproduction): 0.38 mg/kg-day
NOAEL (Mus musculus; short-term, duration: 14 days, oral, diet, M/F, BALB/cAnCr, hematological): 0.1 mg/kg-day
NOAEL (Canidae): 4 mg/kg-day
NOAEL (Bovidae; chronic, duration: 126 days, oral, diet, food consumption): 10 mg/kg-day
NOAEL (Bovidae; chronic, duration: 166 days, oral, diet, food consumption): 18 mg/kg-day
NOAEL (Bovidae; subchronic, duration: 13 weeks, F, no effects): 5.24 mg/kg-day
NOAEL (Ovis sp.): 16 mg/kg-day
NOAEL (Neovison vison): 1.18 mg/kg-day
NOAEL (Gallus gallus): 5 mg/kg-day
NOAEL (Oryctolagus sp.): 4.3 mg/kg-day
NOAEL (Felidae): 6 mg/kg-day
NOAEL (Anatidae): 7 mg/kg
